Test system: Plasmodium berghei
Assay: Luciferase/luciferin-expressing antifolate-resistant parasites were used to infect a culture of HepG2 cells that were pre-incubated with compounds. Infected hepatocytes emit light due to the luciferase reaction. Assay results are presented as the percent inhibition of light emission compared to control. […]
Type: functional
Settings: sporozoite; for IC90: read-out: LUCIFERASE INFECTION ASSAY - IC90

Row | Structure (SMILES) | IC90 [µM] | also measured
1 | CCOC(=O)Cc1ccc(NC(=O)c2ccc(C(C)(C)C)cc2)cc1 | 2.02 | IC50 (HEPG2TOX_HILL_SLOPE 1.28, HEPG2TOX_R_SQUARED 0.763, PBLUC_HILL_SLOPE 1.21, PBLUC_R_SQUARED 0.784, read-out: LUCIFERASE INFECTION ASSAY - IC50): 0.329 µM
2 | CC(C)(C)c1cc(C(=O)/C(C#N)=N/Nc2ccc(Cl)cc2)no1 | 4.32 | IC50 (HEPG2TOX_HILL_SLOPE 1.26, HEPG2TOX_R_SQUARED 0.947, PBLUC_HILL_SLOPE 9.91, PBLUC_R_SQUARED 0.6, read-out: LUCIFERASE INFECTION ASSAY - IC50): 3.46 µM
3 | Cc1cnc(C(=O)NNC(=O)CC23CC4CC(CC(C4)C2)C3)cn1 | 9.85 | IC50 (HEPG2TOX_HILL_SLOPE 1.28, HEPG2TOX_R_SQUARED 0.86, PBLUC_HILL_SLOPE 19.8, PBLUC_R_SQUARED 0.188, read-out: LUCIFERASE INFECTION ASSAY - IC50): 8.81 µM
4 | CC(=O)O/N=C1/CCn2c1c(C)c1ccccc12 | 5.74 | IC50 (HEPG2TOX_HILL_SLOPE 1.28, HEPG2TOX_R_SQUARED 0.99, PBLUC_HILL_SLOPE 11.8, PBLUC_R_SQUARED 0.596, read-out: LUCIFERASE INFECTION ASSAY - IC50): 4.77 µM
5 | COc1cccc(C(=O)Nc2nc3ccc(Br)cn3n2)c1 | > 9.51 | IC50 (HEPG2TOX_HILL_SLOPE 1.29, HEPG2TOX_R_SQUARED 0.954, read-out: LUCIFERASE INFECTION ASSAY - IC50): > 9.51 µM
6 | COc1ccc(-c2csc(NC(=O)CN3CCN(c4ncnc5c4cnn5C)CC3)n2)cc1 | 3.88 | IC50 (HEPG2TOX_HILL_SLOPE 1.28, 1.59, HEPG2TOX_R_SQUARED 0.849, 0.471, PBLUC_HILL_SLOPE 15.7, 12.8, PBLUC_R_SQUARED 0.495, 0.575, read-out: LUCIFERASE INFECTION ASSAY - IC50): 3.31 µM
7 | CC(C)CC(=O)NC(=S)Nc1ccc(S(=O)(=O)N(C)Cc2ccccc2)cc1 | 4.58 | IC50 (HEPG2TOX_HILL_SLOPE 1.27, HEPG2TOX_R_SQUARED 0.987, PBLUC_HILL_SLOPE 1.32, PBLUC_R_SQUARED 0.74, read-out: LUCIFERASE INFECTION ASSAY - IC50): 0.868 µM
8 | CCCCC(CC)C[n+]1c(C)cc(C=C2Sc3ccccc3N2CC)cc1C (configuration not stated) | 0.111 | IC50 (HEPG2TOX_HILL_SLOPE 1.26, HEPG2TOX_R_SQUARED 0.976, PBLUC_HILL_SLOPE 1.65, PBLUC_R_SQUARED 0.944, read-out: LUCIFERASE INFECTION ASSAY - IC50): 0.0293 µM
9 | Cc1cc(=O)nc(N/N=C/c2ccccc2O)[nH]1 | > 13.5 | IC50 (HEPG2TOX_HILL_SLOPE 1.27, HEPG2TOX_R_SQUARED 0.681, PBLUC_HILL_SLOPE 2.52, PBLUC_R_SQUARED 0.516, read-out: LUCIFERASE INFECTION ASSAY - IC50): 6.93 µM
10 | COc1cc(OC)c(NC(=O)CN2CCN(Cc3csc4ccccc34)CC2)cc1Cl | 9.45 | IC50 (HEPG2TOX_HILL_SLOPE 1.28, HEPG2TOX_R_SQUARED 0.885, PBLUC_HILL_SLOPE 11.3, PBLUC_R_SQUARED 0.661, read-out: LUCIFERASE INFECTION ASSAY - IC50): 7.79 µM
11 | COc1cccc(CN2CCN3C(C(=O)Nc4ccc(F)c(Cl)c4)=COC3=NC2=O)c1 | > 10 | IC50 (HEPG2TOX_HILL_SLOPE 1.28, HEPG2TOX_R_SQUARED 0.654, PBLUC_HILL_SLOPE 1.61, PBLUC_R_SQUARED 0.572, read-out: LUCIFERASE INFECTION ASSAY - IC50): 3.18 µM
12 | Cc1cc(C(=O)Nc2nc3ccc(Cl)cc3s2)c2c(C)nn(C)c2n1 | 9.09 | IC50 (HEPG2TOX_HILL_SLOPE 1.29, HEPG2TOX_R_SQUARED 0.966, PBLUC_HILL_SLOPE 2.52, PBLUC_R_SQUARED 0.194, read-out: LUCIFERASE INFECTION ASSAY - IC50): 3.81 µM
13 | Nc1ncc(-c2cccc(OC(F)(F)F)c2)cc1-c1cccnc1 | > 9.96 | IC50 (HEPG2TOX_HILL_SLOPE 1.26, HEPG2TOX_R_SQUARED 0.924, PBLUC_HILL_SLOPE 2.1, PBLUC_R_SQUARED 0.295, read-out: LUCIFERASE INFECTION ASSAY - IC50): 5.18 µM
14 | COc1cc(C)c(CN2CCC(c3nc4ccccc4s3)CC2)cc1OC | 5.49 | IC50 (HEPG2TOX_HILL_SLOPE 1.28, HEPG2TOX_R_SQUARED 0.688, PBLUC_HILL_SLOPE 2.8, PBLUC_R_SQUARED 0.756, read-out: LUCIFERASE INFECTION ASSAY - IC50): 2.5 µM
15 | CCOC(=O)c1[nH]c(C)c(C(=O)/C=C/c2c(C)nn3c(C(F)(F)F)ccnc23)c1C | 0.365 | IC50 (HEPG2TOX_HILL_SLOPE 1.29, HEPG2TOX_R_SQUARED 0.824, PBLUC_HILL_SLOPE 0.936, PBLUC_R_SQUARED 0.825, read-out: LUCIFERASE INFECTION ASSAY - IC50): 0.0349 µM
16 | Cc1cc(C(=O)NNC(=O)c2c(C)nc3ccccn23)c2nc3n(c2n1)CCCCC3 | 0.662 | IC50 (HEPG2TOX_HILL_SLOPE 1.28, HEPG2TOX_R_SQUARED 0.815, PBLUC_HILL_SLOPE 3.27, PBLUC_R_SQUARED 0.895, read-out: LUCIFERASE INFECTION ASSAY - IC50): 0.338 µM

Row | Structure (SMILES) | IC90 [µM] | also measured
17 | Cc1cc(C(=O)COc2ccc(C(N)=O)cc2)c(C)n1-c1ccc2c(c1)OCO2 | 5.43 | IC50 (HEPG2TOX_HILL_SLOPE 1.28, HEPG2TOX_R_SQUARED 0.792, PBLUC_HILL_SLOPE 4.73, PBLUC_R_SQUARED 0.266, read-out: LUCIFERASE INFECTION ASSAY - IC50): 3.41 µM
18 | Cc1ccc(Nc2nccc(C(F)(F)F)n2)cc1S(=O)(=O)N(C)C | > 10 | IC50 (HEPG2TOX_HILL_SLOPE 1.28, HEPG2TOX_R_SQUARED 0.583, PBLUC_HILL_SLOPE 1.84, 1.48, PBLUC_R_SQUARED 0.674, 0.430, read-out: LUCIFERASE INFECTION ASSAY - IC50): 4.96 µM
19 | COc1ccc2c(-c3sc(Nc4ccc(C(C)C)cc4)c(-c4nc5ccccc5s4)c3N)cc(=O)oc2c1 | 2.94 | IC50 (HEPG2TOX_HILL_SLOPE 1.27, HEPG2TOX_R_SQUARED 0.95, PBLUC_HILL_SLOPE 4.32, PBLUC_R_SQUARED 0.419, read-out: LUCIFERASE INFECTION ASSAY - IC50): 1.76 µM
20 | CC(C)c1ccc(/C=C/c2ccc(=O)[nH]n2)cc1 | 0.563 | IC50 (HEPG2TOX_HILL_SLOPE 1.26, HEPG2TOX_R_SQUARED 0.973, PBLUC_HILL_SLOPE 20.6, PBLUC_R_SQUARED 0.746, read-out: LUCIFERASE INFECTION ASSAY - IC50): 0.506 µM
21 | Nc1nc2ccc(C(=O)N3CCN(C/C=C/c4ccccc4)CC3)cc2s1 | > 10 | IC50 (HEPG2TOX_HILL_SLOPE 1.29, HEPG2TOX_R_SQUARED 0.665, PBLUC_HILL_SLOPE 22.8, PBLUC_R_SQUARED 0.0313, read-out: LUCIFERASE INFECTION ASSAY - IC50): > 10 µM
22 | COc1ccc(-c2nnc(SC(C)C(=O)NCCC3=CCCCC3)[nH]2)cc1 (configuration not stated) | 0.379 | IC50 (HEPG2TOX_HILL_SLOPE 1.28, HEPG2TOX_R_SQUARED 0.906, PBLUC_HILL_SLOPE 22.1, PBLUC_R_SQUARED 0.622, read-out: LUCIFERASE INFECTION ASSAY - IC50): 0.343 µM
23 | CCOC(=O)c1c(C)nn(-c2ncccc2NC(=O)Nc2cccc(Cl)c2Cl)c1C | > 7.36 | IC50 (HEPG2TOX_HILL_SLOPE 1.28, HEPG2TOX_R_SQUARED 0.665, PBLUC_HILL_SLOPE 11.5, PBLUC_R_SQUARED 0.0917, read-out: LUCIFERASE INFECTION ASSAY - IC50): 6.84 µM
24 | Cc1ccc2c(c1)nc1n2CN(CCN2CCOCC2)CN1Cc1ccccc1 | 1.1 | IC50 (HEPG2TOX_HILL_SLOPE 1.27, HEPG2TOX_R_SQUARED 0.847, PBLUC_HILL_SLOPE 11.9, PBLUC_R_SQUARED 0.472, read-out: LUCIFERASE INFECTION ASSAY - IC50): 0.911 µM
25 | CCOC(=O)c1sc(N)c(C#N)c1CSc1nnc(Nc2ccc(CC)cc2)s1 | 5.14 | IC50 (HEPG2TOX_HILL_SLOPE 1.26, HEPG2TOX_R_SQUARED 0.992, PBLUC_HILL_SLOPE 3.19, PBLUC_R_SQUARED 0.556, read-out: LUCIFERASE INFECTION ASSAY - IC50): 2.58 µM
26 | COc1ccc(C(=O)COC(=O)Cc2cccc(C(F)(F)F)c2)cc1 | 1.69 | IC50 (HEPG2TOX_HILL_SLOPE 1.29, HEPG2TOX_R_SQUARED 0.956, PBLUC_HILL_SLOPE 8.73, PBLUC_R_SQUARED 0.385, read-out: LUCIFERASE INFECTION ASSAY - IC50): 1.32 µM
27 | O=C(NCCCn1cnc2ccccc21)c1ccc(Oc2ccc(F)cc2)cc1 | > 10 | IC50 (HEPG2TOX_HILL_SLOPE 1.27, HEPG2TOX_R_SQUARED 0.899, PBLUC_HILL_SLOPE 1.4, PBLUC_R_SQUARED 0.524, read-out: LUCIFERASE INFECTION ASSAY - IC50): 5.3 µM
28 | NC(=O)c1ccsc1NC(=O)CSc1ncc(-c2ccccc2)n1-c1ccccc1 | 3.1 | IC50 (HEPG2TOX_HILL_SLOPE 1.27, HEPG2TOX_R_SQUARED 0.954, PBLUC_HILL_SLOPE 1.14, PBLUC_R_SQUARED 0.72, read-out: LUCIFERASE INFECTION ASSAY - IC50): 0.447 µM
29 | N#CCCNS(=O)(=O)c1cccc(C(=O)Nc2ccc(Nc3ccccc3)cc2)c1 | 4.83 | IC50 (HEPG2TOX_HILL_SLOPE 1.27, HEPG2TOX_R_SQUARED 0.641, PBLUC_HILL_SLOPE 2.13, PBLUC_R_SQUARED 0.388, read-out: LUCIFERASE INFECTION ASSAY - IC50): 1.72 µM
30 | O=C(Cc1ccc(O)cc1)N1CCc2nc(NCc3cccc(Oc4ccccc4)c3)ncc2C1 | 4.97 | IC50 (HEPG2TOX_HILL_SLOPE 1.26, HEPG2TOX_R_SQUARED 0.949, PBLUC_HILL_SLOPE 2.67, PBLUC_R_SQUARED 0.466, read-out: LUCIFERASE INFECTION ASSAY - IC50): 2.18 µM
31 | COc1ccc(/C(C#N)=C/c2ccccc2OC)cc1 | 2.26 | IC50 (HEPG2TOX_HILL_SLOPE 1.28, HEPG2TOX_R_SQUARED 0.968, PBLUC_HILL_SLOPE 1.65, PBLUC_R_SQUARED 0.898, read-out: LUCIFERASE INFECTION ASSAY - IC50): 0.597 µM

From ChEMBL document CHEMBL4483862, “Open-source discovery of chemical leads for next-generation chemoprotective antimalarials” (2018)
